Source: ChEMBL document CHEMBL1124960, “Histamine H3 ligands: just pharmacological tools or potential therapeutic agents?” (J Med Chem, 1990)

Columns and labels:
[1] = biological target: Histamine H1 receptor (Cavia porcellus) (UniProt P31389); assay: Evaluated for agonistic activity at histamine H1 receptor of guinea pig ileum and is represented as intrinsic activity; type: functional, tissue-based
[2] = biological target: Histamine H1 receptor (Cavia porcellus) (UniProt P31389); assay: Evaluated for agonistic activity at histamine H1 receptor of guinea pig ileum and is represented as potency.; type: functional, tissue-based
[3] = biological target: Histamine H2 receptor (Cavia porcellus) (UniProt P47747); assay: Evaluated for agonistic activity at histamine H2 receptor of guinea pig atrium and is represented as intrinsic activity; type: functional, tissue-based; details: Cardiac atrium
Sequence of Histamine H2 receptor (Cavia porcellus) (P47747 whole entry): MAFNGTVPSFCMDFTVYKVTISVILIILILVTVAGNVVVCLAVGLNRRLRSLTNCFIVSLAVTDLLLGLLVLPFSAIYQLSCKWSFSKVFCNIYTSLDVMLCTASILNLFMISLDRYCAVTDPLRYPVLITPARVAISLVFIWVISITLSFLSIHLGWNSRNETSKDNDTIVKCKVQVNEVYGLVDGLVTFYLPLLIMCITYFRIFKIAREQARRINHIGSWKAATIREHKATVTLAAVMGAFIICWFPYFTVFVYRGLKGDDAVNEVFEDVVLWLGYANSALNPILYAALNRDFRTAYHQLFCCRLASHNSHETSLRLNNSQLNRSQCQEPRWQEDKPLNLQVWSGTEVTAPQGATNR

[4] = biological target: Histamine H2 receptor (Cavia porcellus) (UniProt P47747); assay: Evaluated for agonistic activity at histamine H2 receptor of guinea pig atrium and is represented as potency.; type: functional, tissue-based; details: Cardiac atrium
Histamine H3 receptor [5] = biological target: T1, Histamine H3 receptor (Rattus norvegicus, UniProt Q9QYN8); assay: Evaluated for antagonistic activity at histamine H3 receptor in rat cerebral cortex and is represented as Ki.; type: functional, tissue-based
T1 sequence (Q9QYN8 whole entry): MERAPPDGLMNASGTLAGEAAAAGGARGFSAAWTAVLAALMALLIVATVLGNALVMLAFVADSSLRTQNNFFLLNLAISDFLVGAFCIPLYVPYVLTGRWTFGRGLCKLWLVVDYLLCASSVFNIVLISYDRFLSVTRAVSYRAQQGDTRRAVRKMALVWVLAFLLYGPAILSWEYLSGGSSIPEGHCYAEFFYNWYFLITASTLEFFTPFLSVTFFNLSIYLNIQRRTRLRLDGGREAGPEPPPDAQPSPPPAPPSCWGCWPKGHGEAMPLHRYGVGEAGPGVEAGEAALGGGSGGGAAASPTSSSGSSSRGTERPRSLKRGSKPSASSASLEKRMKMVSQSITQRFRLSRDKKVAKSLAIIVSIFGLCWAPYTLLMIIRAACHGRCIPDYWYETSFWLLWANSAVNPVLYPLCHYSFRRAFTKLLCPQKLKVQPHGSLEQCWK

Rattus norvegicus [6] = organism: Rattus norvegicus; assay: Relative inhibition of [3H]histamine release from pre-loaded slices of rat cerebral cortex; type: functional
[7] = biological target: Histamine H2 receptor (Cavia porcellus) (UniProt P47747); assay: Evaluated for activity at Histamine H2 receptor in guinea pig ileum; type: tissue-based
[8] = biological target: Histamine H1 receptor (Cavia porcellus) (UniProt P31389); assay: Evaluated for activity at Histamine H1 receptor in guinea pig ileum; type: tissue-based
[9] = biological target: Histamine H2 receptor (Cavia porcellus) (UniProt P47747); assay: Evaluated for activity against histamine H2 receptor in guinea pig gastric secretion and represented as alpha; type: tissue-based; details: Stomach
[10] = biological target: Histamine H2 receptor (Cavia porcellus) (UniProt P47747); assay: Evaluated for activity against histamine H2 receptor in guinea pig atrium and represented as intrinsic activity; details: Cardiac atrium
[11] = biological target: Histamine H2 receptor (Cavia porcellus) (UniProt P47747); assay: Evaluated for activity against histamine H2 receptor in guinea pig atrium and represented as alpha; type: tissue-based; details: Cardiac atrium
[12] = biological target: Histamine H3 receptor (Rattus norvegicus) (UniProt Q9QYN8); assay: Evaluated for activity against H3 receptor and represented as %recovery histamine release at a concentration 5 x 10 E -6M.
Target sequence in this assay (Q9QYN8 whole entry, looked up): as the sequence (Q9QYN8 whole entry) above

[13] = biological target: Histamine H2 receptor (Cavia porcellus) (UniProt P47747); assay: Evaluated for activity against histamine H2 receptor in guinea pig gastric secretion and represented as pD2; type: tissue-based; details: Stomach
Rattus norvegicus [14] = organism: Rattus norvegicus; assay: Evaluated for inhibition of [3H]histamine release from preloaded slices and is represented as pD2; type: functional
Histamine H3 receptor [15] = biological target: T1, Histamine H3 receptor; assay: (§1) Evaluated for antagonist activity against Histamine H3 receptor and represented as KB.; type: functional
Histamine H3 receptor [16] = biological target: T1, Histamine H3 receptor; assay: Evaluated for antagonist activity against histamine H3 receptor and is represented as -log Ki.; type: functional
[17] = biological target: Histamine H3 receptor (Cavia porcellus) (UniProt Q9JI35); assay: as §1; type: functional
Sequence of Histamine H3 receptor (Cavia porcellus) (Q9JI35 whole entry): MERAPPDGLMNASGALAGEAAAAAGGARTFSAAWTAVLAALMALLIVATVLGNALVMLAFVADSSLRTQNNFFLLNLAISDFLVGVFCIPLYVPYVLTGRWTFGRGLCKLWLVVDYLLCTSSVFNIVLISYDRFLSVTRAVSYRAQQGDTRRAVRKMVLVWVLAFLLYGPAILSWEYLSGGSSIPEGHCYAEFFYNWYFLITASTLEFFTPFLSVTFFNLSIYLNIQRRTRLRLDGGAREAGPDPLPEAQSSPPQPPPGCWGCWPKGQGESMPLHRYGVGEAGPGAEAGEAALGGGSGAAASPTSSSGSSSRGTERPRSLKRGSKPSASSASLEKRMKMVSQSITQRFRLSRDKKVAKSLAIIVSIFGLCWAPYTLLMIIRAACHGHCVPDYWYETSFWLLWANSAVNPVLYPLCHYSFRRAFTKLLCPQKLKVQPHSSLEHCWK

[18] = biological target: Histamine H3 receptor (Rattus norvegicus) (UniProt Q9QYN8); assay: Evaluated for antagonist activity against histamine H3 receptor and represented as KB; type: functional
Target sequence in this assay (Q9QYN8 whole entry): as the sequence (Q9QYN8 whole entry) above

[19] = biological target: Histamine H2 receptor (Cavia porcellus) (UniProt P47747); assay: Evaluated for antagonist activity against histamine H2 receptor and represented as KB.; type: functional
[20] = biological target: Histamine H3 receptor (Rattus norvegicus) (UniProt Q9QYN8); assay: Evaluated for antagonist activity against histamine H3 receptor and represented as KB.; type: functional
Target sequence in this assay (Q9QYN8 whole entry): as above

[21] = biological target: Histamine H2 receptor (Cavia porcellus) (UniProt P47747); assay: Evaluated for agonistic (intrinsic) activity at histamine H2 receptor of guinea pig atrium and is represented as intrinsic activity; type: functional, tissue-based; details: Cardiac atrium
[22] = biological target: Histamine H1 receptor (Cavia porcellus) (UniProt P31389); assay: Evaluated for agonistic activity at histamine H1 receptor of guinea pig ileum and is represented as potency; type: functional, tissue-based
Rattus norvegicus [23] = organism: Rattus norvegicus; assay: Histamine level after treatment was determined in adbominal skin.; type: functional
Rattus norvegicus [24] = organism: Rattus norvegicus; assay: Histamine level after treatment was determined in cerebral cortex; type: functional
Rattus norvegicus [25] = organism: Rattus norvegicus; assay: Histamine level after treatment was determined in hypothalamus.; type: functional
Rattus norvegicus [26] = organism: Rattus norvegicus; assay: Histamine level after treatment was determined in spleen; type: functional
Rattus norvegicus [27] = organism: Rattus norvegicus; assay: Histamine level after treatment was determined in colon.; type: functional

Sequence of Histamine H1 receptor (Cavia porcellus) (P31389 whole entry): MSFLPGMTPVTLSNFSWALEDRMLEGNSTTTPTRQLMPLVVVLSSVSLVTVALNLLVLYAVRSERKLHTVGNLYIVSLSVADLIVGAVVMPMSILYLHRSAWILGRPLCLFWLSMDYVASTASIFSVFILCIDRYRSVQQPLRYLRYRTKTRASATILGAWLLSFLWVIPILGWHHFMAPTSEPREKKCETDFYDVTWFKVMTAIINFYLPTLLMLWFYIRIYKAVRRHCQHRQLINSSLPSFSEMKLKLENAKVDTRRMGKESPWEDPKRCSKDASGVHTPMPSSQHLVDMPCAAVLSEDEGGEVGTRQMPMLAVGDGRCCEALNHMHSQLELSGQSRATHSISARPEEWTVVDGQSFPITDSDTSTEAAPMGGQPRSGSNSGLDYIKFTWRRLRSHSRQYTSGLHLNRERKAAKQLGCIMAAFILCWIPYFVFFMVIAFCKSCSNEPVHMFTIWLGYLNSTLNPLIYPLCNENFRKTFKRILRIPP

## Cc1nc[nH]c1CSCCNC(=N)N[C@H](C)Cc1c[nH]cn1 [SOPROMIDINE]
[1]
  Activity: 0.2
[2]
  Potency: 1.7
[3]
  Activity: 1
[4]
  pD2: 6.92
Histamine H3 receptor [5]
  Ki: 60 nM

## C[C@H](N)Cc1c[nH]cn1
Rattus norvegicus [6]
  Ratio_EC50: 13
[7]
  Activity: 1.74
[8]
  Activity: 0.49

## Cn1cnc(CCN)c1 [N-METHYLHISTAMINE]
Rattus norvegicus [6]
  Ratio_EC50: <4
[7]
  Activity: < 0.1
[8]
  Activity: < 0.01

## N=C(N)Nc1nc(CSCC/N=C(\N)NCCCc2c[nH]cn2)cs1
[9]
  pD2: 8.2
[10]
  intrinsic activity: 1
[11]
  Activity: 1
[12]
  Release: 100%
[13]
  pD2: 7.9

## CC(C)NCCc1c[nH]cn1
Rattus norvegicus [14]
  pD2: <5.5

## CN(C)CCCSC(=N)N
Rattus norvegicus [6]
  Ratio_EC50: <0.03
[7]
  Activity: 71
[8]
  Activity: < 0.0001

## O=C(CCCCc1ccccc1)NCCc1cnc[nH]1
Histamine H3 receptor [15]
  Ki: 200 nM

## O=C(Cc1ccccc1)NCCc1c[nH]cn1
Histamine H3 receptor [15]
  Ki: 1000 nM

## Cc1nc[nH]c1CCN [4-METHYLHISTAMINE]
Rattus norvegicus [6]
  Ratio_EC50: <0.008
[7]
  Activity: 43
[8]
  Activity: 0.23

## O=C(CCCc1cnc[nH]1)NCCc1cnc[nH]1
Histamine H3 receptor [16]
  Ki: 1000 nM

## CNC(=C[N+](=O)[O-])NCCSCc1ccc(CN(C)C)o1
[17]
  KB: 1.2 µM

## CN(C)CC[C@@H](c1ccc(Cl)cc1)c1ccccn1
[18]
  KB: > 58 nM

## C/N=C(/NC#N)NCCSCc1csc(NC(=N)N)n1
[19]
  KB: 15 nM
[20]
  KB: > 12 µM

## O=C(CCC(c1ccccc1)c1ccccc1)NCCc1c[nH]cn1
Histamine H3 receptor [16]
  Ki: 1000 nM

## Cc1nc[nH]c1CSCCN/C(N)=N/[C@@H](C)Cc1c[nH]cn1
[1]
  Activity: 0
[21]
  Activity: 0
[22]
  Potency: 0

## O=C(CCCC1CCCCC1)NCCc1cnc[nH]1
Histamine H3 receptor [16]
  Ki: 50.1 nM

## C[C@@H](N)Cc1c[nH]cn1
Rattus norvegicus [23]
  Histamine level: 65
Rattus norvegicus [24]
  Histamine level: 68
Rattus norvegicus [6]
  Ratio_EC50: 1550
[7]
  Activity: 1.02
Rattus norvegicus [25]
  Histamine level: 85
Rattus norvegicus [26]
  Histamine level: 69
Rattus norvegicus [27]
  Histamine level: 81
[8]
  Activity: 0.49
